Each structure is given as a SMILES string. Like-named read-outs stand apart in the source and are kept apart here.

The values below come from patent US20210084902A1, “FUNGICIDAL MIXTURE COMPRISING SUBSTITUTED 3-PHENYL-5-(TRIFLUOROMETHYL)-1,2,4-OXADIAZOLES” (BASF SE, priority 2017, published 2021).

What all share (format): cell-based
Test [1] concerns Colletotrichum orbiculare. Nature of the test: Fungicidal activity against Colletotrichum orbiculare in the microtiterplate test. The note with it: Colletotrichum orbiculare, read-out: Observed efficacy.
The subject of the next test is Septoria tritici. Nature of the test: Fungicidal activity against Septoria tritici, micro titer plate (MTP) test. The note with it: Zymoseptoria tritici, 168 h, read-out: Observed efficacy.
The subject of the next test is Botrytis cinerea. As to the kind of experiment: Fungicidal activity against Botrytis cinerea, micro titer plate (MTP) test. Particulars: Botrytis cinerea, 168 h, read-out: Observed efficacy.
The test system of the next test is Pyricularia oryzae. As to the kind of experiment: microbe, parasite or virus in culture. The note with it: Pyricularia oryzae, 168 h, read-out: Observed efficacy.
The subject of a further test is Leptosphaeria nodorum. As to the kind of experiment: Fungicidal activity against Leptosphaeria nodorum, microtiter plate (MTP) test. Particulars: Parastagonospora nodorum, 168 h, read-out: Observed efficacy.

As to `O=C(Nc1ccccc1F)c1ccc(-c2noc(C(F)(F)F)n2)cc1` [I.E, N-(2-fluorophenyl)-4-[5-(trifluoromethyl)-1,2,4-oxadiazol-3-yl]benzamide], the inhibition of growth at […] in test [1] (0.25 ppm) came out at 4%; in the test with Septoria tritici (Table V.6, I.E alone, 0.25 ppm), 13%; with Botrytis cinerea (I.E alone, 0.063 ppm), 2%. Besides, the inhibition of growth at 1 ppm was 4% in test [1] (1 ppm), 2% in the test with Botrytis cinerea (I.E alone) and 5% with Pyricularia oryzae. For the same compound, the inhibition of growth at 4 ppm amounted to 11% in test [1] (4 ppm); 7% with Septoria tritici (Table V.6, I.E alone); 2% with Botrytis cinerea (I.E alone); 5% with Pyricularia oryzae. In addition, the inhibition of growth at 16 ppm turned out to be 52% in test [1] (16 ppm); 13% in the test with Septoria tritici (Table V.6, I.E alone, 16 ppm); 3% with Botrytis cinerea (I.E alone, 16 ppm); 6% with Pyricularia oryzae; 18% in the test on Leptosphaeria nodorum (16 ppm). For the same compound, the inhibition of growth at 63 ppm stood at 14% in the test with Septoria tritici (Table V.6, I.E alone, 63 ppm); 16% in the test with Botrytis cinerea (I.E alone, 63 ppm); 9% in the test on Pyricularia oryzae; 22% in the test on Leptosphaeria nodorum (63 ppm).

With `CNC(=S)c1ccc(-c2noc(C(F)(F)F)n2)cc1` [I.M, N-methyl-4-[5-(trifluoromethyl)-1,2,4-oxadiazol-3-yl]benzenecarbothioamide], the inhibition of growth at 6.3e-05 ppm in test [1] (0.000063 ppm) is 2%. Also, the inhibition of growth at […] in test [1] (0.00025 ppm) amounted to 2%; in test [1] (0.016 ppm), 7%; in the test on Septoria tritici (Table V.5, I.M alone, 0.063 ppm) it was 14%; with Septoria tritici (Table V.5, I.M alone, 0.25 ppm) it was 23%; in the test with Botrytis cinerea (I.M alone, 0.063 ppm), 1%; in the test with Botrytis cinerea (I.M alone, 0.25 ppm) it was 2%. Further, the inhibition of growth at […] with Leptosphaeria nodorum (0.016 ppm) is 5%; in the test with Leptosphaeria nodorum (0.25 ppm), 7%. The inhibition of growth at 0.001 ppm in test [1] was determined as 1%. Further, the inhibition of growth at 0.004 ppm in test [1] (0.004 ppm) was found to be 1%; in the test with Leptosphaeria nodorum, 6%. Also, the inhibition of growth at 1 ppm was determined as 35% in the test on Septoria tritici (Table V.5, I.M alone, 1 ppm); 0% in the test with Botrytis cinerea (I.M alone); 9% with Pyricularia oryzae; 18% in the test with Leptosphaeria nodorum (1 ppm). Moreover, the inhibition of growth at 4 ppm stood at 42% with Septoria tritici (Table V.5, I.M alone); 15% with Botrytis cinerea (I.M alone); 32% with Pyricularia oryzae; 52% in the test on Leptosphaeria nodorum (4 ppm).

Take `COC(=O)N(OC)c1ccccc1COc1ccn(-c2ccc(Cl)cc2)n1` [Pyraclostrobin, pyraclostrobin]: the inhibition of growth at 0.001 ppm was 32% in test [1] and 46% in the test on Pyricularia oryzae. Further, the inhibition of growth at […] in test [1] (0.016 ppm) was 60%; in the test with Botrytis cinerea (component B alone, 0.016 ppm), 14%; with Leptosphaeria nodorum (0.00025 ppm), 22%. The inhibition of growth at 6.3e-05 ppm with Septoria tritici (Table V.4, component B alone, 0.000063 ppm) was determined as 21%. Also, the inhibition of growth at 0.004 ppm was determined as 0% in the test with Botrytis cinerea (component B alone, 0.004 ppm) and 59% in the test with Leptosphaeria nodorum.
